Experimental data published in ChEMBL document CHEMBL5724914, “Linking interpersonal differences in gut microbiota composition and drug biotransformation activity” (2024).

test: (§1) The drug is tested on Z-002 corresponding to rabbit gut metagenome with ENA study accession number: PRJEB37062 and ENA sample accession number: ERS12561802 for biotransformation under anaerobic condition. The drug concentrations were measured over 9 timepoints collected between 0 and 24 hours of incubation by liquid-chromatography-coupled mass spectrometry (LC–MS); conditions: 2 µM
Further: call rule not given here.

Bacterial Biotransformation	SMILES
Compound metabolized	CC(=O)OCC(=O)[C@@]12N=C(C)O[C@@H]1C[C@H]1[C@@H]3CCC4=CC(=O)C=C[C@]4(C)[C@H]3[C@@H](O)C[C@@]12C [DEFLAZACORT]
Compound metabolized	O=c1n(CCCN2CCN(c3cccc(Cl)c3)CC2)nc2ccccn12 [TRAZODONE]

test: as §1, with “WLS-010” for “Z-002”, “human” for “rabbit”, “ERS12561743” for “ERS12561802”; conditions: 2 µM

Bacterial Biotransformation	SMILES
Compound metabolized	CC(=O)OCC(=O)[C@@]12N=C(C)O[C@@H]1C[C@H]1[C@@H]3CCC4=CC(=O)C=C[C@]4(C)[C@H]3[C@@H](O)C[C@@]12C [DEFLAZACORT]
Compound NOT metabolized	O=c1n(CCCN2CCN(c3cccc(Cl)c3)CC2)nc2ccccn12 [TRAZODONE]

test: as §1, with “Z-010” for “Z-002”, “to” for “to rabbit gut”, “ERS12561810” for “ERS12561802”; conditions: 2 µM

Bacterial Biotransformation	SMILES
Compound metabolized	CC(=O)OCC(=O)[C@@]12N=C(C)O[C@@H]1C[C@H]1[C@@H]3CCC4=CC(=O)C=C[C@]4(C)[C@H]3[C@@H](O)C[C@@]12C [DEFLAZACORT]
Compound metabolized	O=c1n(CCCN2CCN(c3cccc(Cl)c3)CC2)nc2ccccn12 [TRAZODONE]

conditions: human gut metagenome, 24 h, 2 µM

Bacterial Biotransformation	SMILES
Compound metabolized	CC(=O)OCC(=O)[C@@]12N=C(C)O[C@@H]1C[C@H]1[C@@H]3CCC4=CC(=O)C=C[C@]4(C)[C@H]3[C@@H](O)C[C@@]12C [DEFLAZACORT]
Compound NOT metabolized	O=c1n(CCCN2CCN(c3cccc(Cl)c3)CC2)nc2ccccn12 [TRAZODONE]

conditions: human gut metagenome, 24 h, 2 µM; remark: another data set of the same source

Bacterial Biotransformation	SMILES
Compound metabolized	CC(=O)OCC(=O)[C@@]12N=C(C)O[C@@H]1C[C@H]1[C@@H]3CCC4=CC(=O)C=C[C@]4(C)[C@H]3[C@@H](O)C[C@@]12C [DEFLAZACORT]
Compound NOT metabolized	O=c1n(CCCN2CCN(c3cccc(Cl)c3)CC2)nc2ccccn12 [TRAZODONE]

test: as §1, with “Z-012” for “Z-002”, “to” for “to rabbit gut”, “ERS12561812” for “ERS12561802”; conditions: 2 µM

Bacterial Biotransformation	SMILES
Compound metabolized	CC(=O)OCC(=O)[C@@]12N=C(C)O[C@@H]1C[C@H]1[C@@H]3CCC4=CC(=O)C=C[C@]4(C)[C@H]3[C@@H](O)C[C@@]12C [DEFLAZACORT]
Compound NOT metabolized	O=c1n(CCCN2CCN(c3cccc(Cl)c3)CC2)nc2ccccn12 [TRAZODONE]

test: as §1, with “WLS-240” for “Z-002”, “human” for “rabbit”, “ERS12561773” for “ERS12561802”; conditions: 2 µM

Bacterial Biotransformation	SMILES
Compound metabolized	CC(=O)OCC(=O)[C@@]12N=C(C)O[C@@H]1C[C@H]1[C@@H]3CCC4=CC(=O)C=C[C@]4(C)[C@H]3[C@@H](O)C[C@@]12C [DEFLAZACORT]
Compound metabolized	O=c1n(CCCN2CCN(c3cccc(Cl)c3)CC2)nc2ccccn12 [TRAZODONE]

test: as §1, with “WLS-038” for “Z-002”, “human” for “rabbit”, “ERS12561745” for “ERS12561802”; conditions: 2 µM

Bacterial Biotransformation	SMILES
Compound metabolized	CC(=O)OCC(=O)[C@@]12N=C(C)O[C@@H]1C[C@H]1[C@@H]3CCC4=CC(=O)C=C[C@]4(C)[C@H]3[C@@H](O)C[C@@]12C [DEFLAZACORT]
Compound NOT metabolized	O=c1n(CCCN2CCN(c3cccc(Cl)c3)CC2)nc2ccccn12 [TRAZODONE]

test: as §1, with “Z-026” for “Z-002”, “to” for “to rabbit gut”, “ERS12561825” for “ERS12561802”; conditions: 2 µM

Bacterial Biotransformation	SMILES
Compound metabolized	CC(=O)OCC(=O)[C@@]12N=C(C)O[C@@H]1C[C@H]1[C@@H]3CCC4=CC(=O)C=C[C@]4(C)[C@H]3[C@@H](O)C[C@@]12C [DEFLAZACORT]
Compound NOT metabolized	O=c1n(CCCN2CCN(c3cccc(Cl)c3)CC2)nc2ccccn12 [TRAZODONE]

test: as §1, with “WLS-039” for “Z-002”, “human” for “rabbit”, “ERS12561746” for “ERS12561802”; conditions: 2 µM

Bacterial Biotransformation	SMILES
Compound metabolized	CC(=O)OCC(=O)[C@@]12N=C(C)O[C@@H]1C[C@H]1[C@@H]3CCC4=CC(=O)C=C[C@]4(C)[C@H]3[C@@H](O)C[C@@]12C [DEFLAZACORT]
Compound NOT metabolized	O=c1n(CCCN2CCN(c3cccc(Cl)c3)CC2)nc2ccccn12 [TRAZODONE]

conditions: human gut metagenome, 24 h, 2 µM; remark: another data set of the same source

Bacterial Biotransformation	SMILES
Compound metabolized	CC(=O)OCC(=O)[C@@]12N=C(C)O[C@@H]1C[C@H]1[C@@H]3CCC4=CC(=O)C=C[C@]4(C)[C@H]3[C@@H](O)C[C@@]12C [DEFLAZACORT]
Compound NOT metabolized	O=c1n(CCCN2CCN(c3cccc(Cl)c3)CC2)nc2ccccn12 [TRAZODONE]

conditions: human gut metagenome, 24 h, 2 µM; remark: another data set of the same source

Bacterial Biotransformation	SMILES
Compound metabolized	CC(=O)OCC(=O)[C@@]12N=C(C)O[C@@H]1C[C@H]1[C@@H]3CCC4=CC(=O)C=C[C@]4(C)[C@H]3[C@@H](O)C[C@@]12C [DEFLAZACORT]
Compound metabolized	O=c1n(CCCN2CCN(c3cccc(Cl)c3)CC2)nc2ccccn12 [TRAZODONE]

test: as §1, with “WLS-098” for “Z-002”, “human” for “rabbit”, “ERS12561754” for “ERS12561802”; conditions: 2 µM

Bacterial Biotransformation	SMILES
Compound metabolized	CC(=O)OCC(=O)[C@@]12N=C(C)O[C@@H]1C[C@H]1[C@@H]3CCC4=CC(=O)C=C[C@]4(C)[C@H]3[C@@H](O)C[C@@]12C [DEFLAZACORT]
Compound metabolized	O=c1n(CCCN2CCN(c3cccc(Cl)c3)CC2)nc2ccccn12 [TRAZODONE]

conditions: human gut metagenome, 24 h, 2 µM; remark: another data set of the same source

Bacterial Biotransformation	SMILES
Compound metabolized	CC(=O)OCC(=O)[C@@]12N=C(C)O[C@@H]1C[C@H]1[C@@H]3CCC4=CC(=O)C=C[C@]4(C)[C@H]3[C@@H](O)C[C@@]12C [DEFLAZACORT]
Compound NOT metabolized	O=c1n(CCCN2CCN(c3cccc(Cl)c3)CC2)nc2ccccn12 [TRAZODONE]

test: as §1, with “WLS-170” for “Z-002”, “human” for “rabbit”, “ERS12561762” for “ERS12561802”; conditions: 2 µM

Bacterial Biotransformation	SMILES
Compound metabolized	CC(=O)OCC(=O)[C@@]12N=C(C)O[C@@H]1C[C@H]1[C@@H]3CCC4=CC(=O)C=C[C@]4(C)[C@H]3[C@@H](O)C[C@@]12C [DEFLAZACORT]
Compound NOT metabolized	O=c1n(CCCN2CCN(c3cccc(Cl)c3)CC2)nc2ccccn12 [TRAZODONE]

test: as §1, with “WLS-027” for “Z-002”, “human” for “rabbit”, “ERS12561744” for “ERS12561802”; conditions: 2 µM

Bacterial Biotransformation	SMILES
Compound metabolized	CC(=O)OCC(=O)[C@@]12N=C(C)O[C@@H]1C[C@H]1[C@@H]3CCC4=CC(=O)C=C[C@]4(C)[C@H]3[C@@H](O)C[C@@]12C [DEFLAZACORT]
Compound metabolized	O=c1n(CCCN2CCN(c3cccc(Cl)c3)CC2)nc2ccccn12 [TRAZODONE]

test: as §1, with “WLS-007” for “Z-002”, “human” for “rabbit”, “ERS12561742” for “ERS12561802”; conditions: 2 µM

Bacterial Biotransformation	SMILES
Compound metabolized	CC(=O)OCC(=O)[C@@]12N=C(C)O[C@@H]1C[C@H]1[C@@H]3CCC4=CC(=O)C=C[C@]4(C)[C@H]3[C@@H](O)C[C@@]12C [DEFLAZACORT]
Compound metabolized	O=c1n(CCCN2CCN(c3cccc(Cl)c3)CC2)nc2ccccn12 [TRAZODONE]

conditions: human gut metagenome, 24 h, 2 µM; remark: another data set of the same source

Bacterial Biotransformation	SMILES
Compound metabolized	CC(=O)OCC(=O)[C@@]12N=C(C)O[C@@H]1C[C@H]1[C@@H]3CCC4=CC(=O)C=C[C@]4(C)[C@H]3[C@@H](O)C[C@@]12C [DEFLAZACORT]
Compound metabolized	O=c1n(CCCN2CCN(c3cccc(Cl)c3)CC2)nc2ccccn12 [TRAZODONE]

test: as §1, with “Z-011” for “Z-002”, “mouse” for “rabbit”, “ERS12561811” for “ERS12561802”; conditions: 2 µM

Bacterial Biotransformation	SMILES
Compound metabolized	CC(=O)OCC(=O)[C@@]12N=C(C)O[C@@H]1C[C@H]1[C@@H]3CCC4=CC(=O)C=C[C@]4(C)[C@H]3[C@@H](O)C[C@@]12C [DEFLAZACORT]
Compound NOT metabolized	O=c1n(CCCN2CCN(c3cccc(Cl)c3)CC2)nc2ccccn12 [TRAZODONE]

conditions: human gut metagenome, 24 h, 2 µM; remark: another data set of the same source

Bacterial Biotransformation	SMILES
Compound metabolized	CC(=O)OCC(=O)[C@@]12N=C(C)O[C@@H]1C[C@H]1[C@@H]3CCC4=CC(=O)C=C[C@]4(C)[C@H]3[C@@H](O)C[C@@]12C [DEFLAZACORT]
Compound metabolized	O=c1n(CCCN2CCN(c3cccc(Cl)c3)CC2)nc2ccccn12 [TRAZODONE]
